In PubChem BioAssay (NCI):
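Growth conditions: 96-well plates. Treatment: test compound, 48 hours, 5 concentrations. Analysis: linear interpolation between bracketing concentrations; unreached endpoints set to highest concentration. TGI: concentration producing complete growth inhibition.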

Legend:
Assay in all cases: DTP human tumour cell line panel, 48 h
RXF 393 renal = system: RXF 393 renal
HS 578T breast = system: HS 578T breast
MDA-N = system: MDA-N
RPMI-8226 leukemia = system: RPMI-8226 leukemia
HCT-15 colon = system: HCT-15 colon
SK-OV-3 ovarian = system: SK-OV-3 ovarian
NCI-H226 lung = system: NCI-H226 lung
SR leukemia = system: SR leukemia
SF-295 CNS = system: SF-295 CNS
SK-MEL-5 melanoma = system: SK-MEL-5 melanoma
KM12 colon = system: KM12 colon
EKVX NSCLC = system: EKVX NSCLC
OVCAR-8 ovarian = system: OVCAR-8 ovarian
M14 melanoma = system: M14 melanoma
HOP-92 NSCLC = system: HOP-92 NSCLC
MALME-3M melanoma = system: MALME-3M melanoma
OVCAR-5 ovarian = system: OVCAR-5 ovarian
786-0 renal = system: 786-0 renal
LOX IMVI melanoma = system: LOX IMVI melanoma
SK-MEL-28 melanoma = system: SK-MEL-28 melanoma
NCI-H23 lung = system: NCI-H23 lung
OVCAR-3 ovarian = system: OVCAR-3 ovarian
SNB-19 CNS = system: SNB-19 CNS
HCC-2998 colon = system: HCC-2998 colon
OVCAR-4 ovarian = system: OVCAR-4 ovarian
UACC-257 melanoma = system: UACC-257 melanoma
SK-MEL-2 melanoma = system: SK-MEL-2 melanoma
MOLT-4 leukemia = system: MOLT-4 leukemia
UACC-62 melanoma = system: UACC-62 melanoma
CAKI-1 renal = system: CAKI-1 renal
COLO 205 colon = system: COLO 205 colon
ACHN renal = system: ACHN renal
NCI/ADR-RES ovarian = system: NCI/ADR-RES ovarian
MDA-MB-231 breast = system: MDA-MB-231 breast
MDA-MB-435 = system: MDA-MB-435
PC-3 prostate = system: PC-3 prostate
DU-145 prostate = system: DU-145 prostate
NCI-H460 lung = system: NCI-H460 lung
U251 CNS = system: U251 CNS
SW-620 colon = system: SW-620 colon
HOP-62 NSCLC = system: HOP-62 NSCLC
HT29 colon = system: HT29 colon
SNB-75 CNS = system: SNB-75 CNS
A498 renal = system: A498 renal
T-47D breast = system: T-47D breast
NCI-H522 lung = system: NCI-H522 lung
HCT-116 colon = system: HCT-116 colon
BT-549 breast = system: BT-549 breast
K-562 leukemia = system: K-562 leukemia
SF-268 CNS = system: SF-268 CNS
SN12C renal = system: SN12C renal
TK-10 renal = system: TK-10 renal
A549 NSCLC = system: A549 NSCLC
MCF7 breast = system: MCF7 breast
UO-31 renal = system: UO-31 renal
SF-539 CNS = system: SF-539 CNS
HL-60(TB) leukemia = system: HL-60(TB) leukemia
IGROV1 ovarian = system: IGROV1 ovarian
CCRF-CEM leukemia = system: CCRF-CEM leukemia

Nc1ccccc1SC(C[N+](=O)[O-])c1ccc2c(c1)OCO2 (centres undefined)
TGI (RXF 393 renal): 3.33 µM | TGI (HS 578T breast): 36.8 µM | TGI (MDA-N): 4.63 µM | TGI (RPMI-8226 leukemia): 4.42 µM | TGI (HCT-15 colon): 10.3 µM | TGI (SK-OV-3 ovarian): 15.9 µM | TGI (NCI-H226 lung): 32.4 µM | TGI (SR leukemia): 4.82 µM | TGI (SF-295 CNS): 18.8 µM | TGI (SK-MEL-5 melanoma): 15.3 µM | TGI (KM12 colon): 6.31 µM | TGI (EKVX NSCLC): 13.3 µM | TGI (OVCAR-8 ovarian): 11 µM | TGI (M14 melanoma): 3.15 µM | TGI (HOP-92 NSCLC): 30.2 µM | TGI (MALME-3M melanoma): 29.8 µM | TGI (OVCAR-5 ovarian): 9.85 µM | TGI (786-0 renal): 3.15 µM | TGI (LOX IMVI melanoma): 3.68 µM | TGI (SK-MEL-28 melanoma): 11.3 µM | TGI (NCI-H23 lung): 8.04 µM | TGI (OVCAR-3 ovarian): 12.4 µM | TGI (SNB-19 CNS): 24.3 µM | TGI (HCC-2998 colon): 3.17 µM | TGI (OVCAR-4 ovarian): 23.8 µM | TGI (UACC-257 melanoma): 3.86 µM | TGI (SK-MEL-2 melanoma): 27.7 µM | TGI (MOLT-4 leukemia): 6.66 µM | TGI (UACC-62 melanoma): 25.9 µM | TGI (CAKI-1 renal): 26.6 µM | TGI (COLO 205 colon): 13.7 µM | TGI (ACHN renal): 19 µM | TGI (NCI/ADR-RES ovarian): 73 µM | TGI (MDA-MB-231 breast): 20 µM | TGI (MDA-MB-435): 9.35 µM | TGI (PC-3 prostate): 20.6 µM | TGI (DU-145 prostate): 8.77 µM | TGI (NCI-H460 lung): 4.75 µM | TGI (U251 CNS): 8.53 µM | TGI (SW-620 colon): 7.74 µM | TGI (HOP-62 NSCLC): 4.38 µM | TGI (HT29 colon): 3.81 µM | TGI (SNB-75 CNS): 7.09 µM | TGI (A498 renal): 20.6 µM | TGI (T-47D breast): 25.8 µM | TGI (NCI-H522 lung): 28.3 µM | TGI (HCT-116 colon): 3.71 µM | TGI (BT-549 breast): 15.2 µM | TGI (K-562 leukemia): 7 µM | TGI (SF-268 CNS): 20.7 µM | TGI (SN12C renal): 14.3 µM | TGI (TK-10 renal): 7.09 µM | TGI (A549 NSCLC): 8.68 µM | TGI (MCF7 breast): 12.4 µM | TGI (UO-31 renal): 3.32 µM | TGI (SF-539 CNS): 4.98 µM | TGI (HL-60(TB) leukemia): 4.6 µM | TGI (IGROV1 ovarian): 3.2 µM

NC(=O)C(c1ccccc1)N1OC2C(=O)N(c3ccccc3)C(=O)C2C1c1c2ccccc2c(Cl)c2ccccc12 (centres undefined)
TGI (RXF 393 renal): > 100 µM | TGI (HS 578T breast): > 100 µM | TGI (CCRF-CEM leukemia): > 100 µM | TGI (MDA-N): > 100 µM | TGI (RPMI-8226 leukemia): > 100 µM | TGI (HCT-15 colon): > 100 µM | TGI (SK-OV-3 ovarian): > 100 µM | TGI (NCI-H226 lung): > 100 µM | TGI (SR leukemia): > 100 µM | TGI (SF-295 CNS): > 100 µM | TGI (SK-MEL-5 melanoma): > 100 µM | TGI (KM12 colon): > 100 µM | TGI (EKVX NSCLC): > 100 µM | TGI (OVCAR-8 ovarian): > 100 µM | TGI (M14 melanoma): > 100 µM | TGI (HOP-92 NSCLC): > 100 µM | TGI (MALME-3M melanoma): > 100 µM | TGI (OVCAR-5 ovarian): > 100 µM | TGI (786-0 renal): > 100 µM | TGI (LOX IMVI melanoma): > 100 µM | TGI (SK-MEL-28 melanoma): > 100 µM | TGI (NCI-H23 lung): > 100 µM | TGI (OVCAR-3 ovarian): > 100 µM | TGI (SNB-19 CNS): > 100 µM | TGI (OVCAR-4 ovarian): > 100 µM | TGI (SK-MEL-2 melanoma): > 100 µM | TGI (MOLT-4 leukemia): > 100 µM | TGI (UACC-62 melanoma): > 100 µM | TGI (CAKI-1 renal): > 100 µM | TGI (COLO 205 colon): > 100 µM | TGI (ACHN renal): > 100 µM | TGI (NCI/ADR-RES ovarian): > 100 µM | TGI (MDA-MB-231 breast): > 100 µM | TGI (MDA-MB-435): > 100 µM | TGI (PC-3 prostate): > 100 µM | TGI (DU-145 prostate): > 100 µM | TGI (U251 CNS): > 100 µM | TGI (SW-620 colon): > 100 µM | TGI (HOP-62 NSCLC): > 100 µM | TGI (HT29 colon): > 100 µM | TGI (SNB-75 CNS): > 100 µM | TGI (T-47D breast): > 100 µM | TGI (NCI-H522 lung): > 100 µM | TGI (HCT-116 colon): > 100 µM | TGI (BT-549 breast): > 100 µM | TGI (K-562 leukemia): > 100 µM | TGI (SF-268 CNS): > 100 µM | TGI (SN12C renal): > 100 µM | TGI (A549 NSCLC): > 100 µM | TGI (MCF7 breast): > 100 µM | TGI (UO-31 renal): > 100 µM | TGI (SF-539 CNS): > 100 µM | TGI (HL-60(TB) leukemia): > 100 µM | TGI (IGROV1 ovarian): > 100 µM

CCOC(=O)c1c2ccccc2n2c(N)c(C(N)=O)nnc12
TGI (RXF 393 renal): 41.6 µM | TGI (HS 578T breast): 35.5 µM | TGI (CCRF-CEM leukemia): > 100 µM | TGI (MDA-N): > 100 µM | TGI (RPMI-8226 leukemia): > 100 µM | TGI (HCT-15 colon): > 100 µM | TGI (SK-OV-3 ovarian): 37.6 µM | TGI (SR leukemia): > 100 µM | TGI (SF-295 CNS): > 100 µM | TGI (SK-MEL-5 melanoma): > 100 µM | TGI (KM12 colon): > 100 µM | TGI (EKVX NSCLC): > 100 µM | TGI (OVCAR-8 ovarian): 55 µM | TGI (M14 melanoma): > 100 µM | TGI (MALME-3M melanoma): > 100 µM | TGI (OVCAR-5 ovarian): > 100 µM | TGI (786-0 renal): > 100 µM | TGI (LOX IMVI melanoma): > 100 µM | TGI (SK-MEL-28 melanoma): > 100 µM | TGI (NCI-H23 lung): 66.2 µM | TGI (OVCAR-3 ovarian): > 100 µM | TGI (SNB-19 CNS): 91.8 µM | TGI (HCC-2998 colon): > 100 µM | TGI (OVCAR-4 ovarian): > 100 µM | TGI (UACC-257 melanoma): > 100 µM | TGI (SK-MEL-2 melanoma): > 100 µM | TGI (MOLT-4 leukemia): > 100 µM | TGI (UACC-62 melanoma): 81.1 µM | TGI (CAKI-1 renal): > 100 µM | TGI (COLO 205 colon): > 100 µM | TGI (ACHN renal): 26.6 µM | TGI (NCI/ADR-RES ovarian): > 100 µM | TGI (MDA-MB-231 breast): 88.6 µM | TGI (MDA-MB-435): > 100 µM | TGI (PC-3 prostate): > 100 µM | TGI (DU-145 prostate): > 100 µM | TGI (NCI-H460 lung): > 100 µM | TGI (U251 CNS): 55.2 µM | TGI (SW-620 colon): > 100 µM | TGI (HOP-62 NSCLC): 69.1 µM | TGI (HT29 colon): > 100 µM | TGI (SNB-75 CNS): 30.8 µM | TGI (A498 renal): 71 µM | TGI (T-47D breast): > 100 µM | TGI (NCI-H522 lung): > 100 µM | TGI (HCT-116 colon): > 100 µM | TGI (BT-549 breast): 89.9 µM | TGI (K-562 leukemia): > 100 µM | TGI (SF-268 CNS): 56.3 µM | TGI (SN12C renal): > 100 µM | TGI (TK-10 renal): 40.5 µM | TGI (A549 NSCLC): > 100 µM | TGI (MCF7 breast): > 100 µM | TGI (UO-31 renal): > 100 µM | TGI (SF-539 CNS): 49.8 µM | TGI (HL-60(TB) leukemia): > 100 µM | TGI (IGROV1 ovarian): 42.6 µM
